According to patent US12313613B2, “Method of testing crystallinity in amorphous pharmaceutical compositions” (ColVisTec AG, priority 2019, dated 2025):

Legend:
Assay type in all cases: physicochemical
[1] = In-line UV/vis transmission crystallinity detection of piroxicam in Kollidon VA64 (solubility maximum, twin-screw extruder); conditions: in Kollidon VA64, hot melt extrusion, amorphous, homogeneous and transparent below this loading
Text: A twin-screw extruder was used to assess the solubility maximum for a mixture of the non-steroidal anti-inflammatory drug (NSAID) piroxicam (PRX) and the carrier polymer Kollidon VA64. The mixture was continuously analysed while traversing the extruder screw using a system of in-line UV/vis spectrometers and the input of the PRX was adjusted until crystallinity was first detected.
UV/vis transmission spectra were obtained for 15, 18, 20, 23 and 25 wt % PRX samples.

[2] = Off-line XRD crystallinity detection of PRX / Kollidon VA64 mixtures (Bruker instrument); conditions: in Kollidon VA64, milled samples, no crystallinity detected at 25 wt %
Experimental: The samples were analysed by a UV/vis spectrometer in transmission mode (FIG. 1) and an XRD spectrum of the same samples was also obtained for comparison and verification (FIG. 2). The XRD samples required milling and analysis offline whereas UV/vis has the advantages that it can be performed rapidly in-line without milling.
XRD spectra were obtained on a Bruker instrument for each of pure solid PRX, Kollidon VA64, and 20, 25 and 30 wt % PRX mixtures separately. […] Only at 30 wt % PRX loading, well above the maximum solubility when there is substantially higher crystallinity, does the XRD spectra first show peaks that correlate with the pure XRD spectra of PRX.

[3] = Particle size distribution of the components (Mastersizer laser diffraction)
Experimental: In some cases, the particle size of the dispersion or solution is measured prior to being subjected to UV/vis spectroscopy. Known methods of sizing the dispersion or solution include sieve analysis, direct imaging and laser diffraction. In the present disclosure, a Mastersizer (Malvern Instruments) laser diffraction device was used.

| Structure (SMILES) | PRX loading at which the first microcrystalline domains are observed (solubility maximum in carrier) [1] [wt %] | PRX loading at which XRD spectra first show peaks of crystalline PRX [2] [wt %] | D10 [3] [μm] | D50 [3] [μm] | D90 [3] [μm] |
| --- | --- | --- | --- | --- | --- |
| CN1C(C(=O)Nc2ccccn2)=C(O)c2ccccc2S1(=O)=O [PRX, 4-hydroxy-2-methyl-1,1-dioxo-N-pyridin-2-yl-1$1^6,2-benzothiazine-3-carboxamide] | 25 | 30 |  |  |  |
| Cc1cc(C#N)cc(C)c1Oc1nc(Nc2ccc(C#N)cc2)nc(N)c1Br [crystalline etravirine (ETR), 4-[6-amino-5-bromo-2-(4-cyanoanilino)pyrimidin-4-yl]oxy-3,5-dimethylbenzonitrile] |  |  | 8 | 26 | 87 |
